Measured values as given in patent US12636370B2, “Combination therapy for treatment of cancer” (Institute For Cancer Research, priority 2019, dated 2026).

What was measured:
Assay type in all cases: cell-based
[1] = system: KURAMOCHI, COV362 and OVCAR5 MZ1-R cells; assay: CellTiter-Glo cell viability, KURAMOCHI, COV362 and OVCAR5 MZ1-R cells; conditions: COV362 and OVCAR5, escalating doses, 5 days
[2] = system: BET proteins (BRD2, BRD3, BRD4); assay: Western blot of BET proteins, OVCAR8 ARV-R cells
BRD2, BRD3 or BRD4 RNA = assay: qRT-PCR of BRD RNA levels, OVCAR8 MZ1-R cells; conditions: 1 μM, 48 hours
OVCAR8 MZ1-R cells [3] = assay: CellTiter-Glo cell viability, OVCAR8 MZ1-R cells; conditions: escalating doses, 5 days; for sensitivity of MZ1-R cells relative to JQ1-R cells or parental cells: OVCAR8, inhibitor screen
OVCAR8 ARV-R cells = assay: CellTiter-Glo cell viability, OVCAR8 ARV-R cells; conditions: escalating doses, 5 days
OVCAR8 Thal-R cells = assay: CellTiter-Glo cell viability, OVCAR8 Thal-R cells; conditions: OVCAR8, escalating doses, 5 days
Description: (§1) Chronic exposure of OVCAR8 cells to CDK9 PROTAC (Thal SNS 032) sensitized cells to RAD001 or GSK1904529A. […] Moreover, these studies show both BET PROTACs and CDK9 PROTACs elicit a similar dependency on MTOR signaling to promote drug resistance. […] OVCAR8 cells were treated with escalating doses of Thal SNS 032 and CDK9 protein levels were determined by Western blot (FIG. 15A). […] (FIG. 15B). […] Thal-R inhibitor treated cell viabilities were normalized to DMSO treated Thal-R cells. Combination therapies involving GSK529A or RAD001 and Thal SNS 032 improved growth repression of OVCAR8 cells. OVCAR8 cells were treated with 100 nM Thal SNS 032, escalating doses of GSK529A or RAD001, or the combination of Thal SNS 032 and kinase inhibitors, for 5 days and cell viability was assessed by CellTiter-Glo (FIGS. 15F and 15G).

[4] = system: BET proteins (BRD2, BRD4); assay: Western blot of BET proteins, KURAMOCHI, COV362 and OVCAR5 MZ1-R cells
CDK9 [5] = biological target: T1, CDK9 (Homo sapiens, UniProt P50750); assay: Western blot of CDK9 protein levels, OVCAR8 Thal-R cells; conditions: Thal 500 nM or 2 μM kinase inhibitor, 4 hours
T1 construct: OVCAR8 cells were treated with escalating doses of Thal SNS 032 and CDK9 protein levels were determined by Western blot; endogenous in cells; host or cells: OVCAR8 parental and Thal-R cells
Description: OVCAR8 cells were treated with escalating doses of Thal SNS 032 and CDK9 protein levels were determined by Western blot (FIG. 15A). […] Thal-R inhibitor treated cell viabilities were normalized to DMSO treated Thal-R cells. […] OVCAR8 cells were treated with 100 nM Thal SNS 032, escalating doses of GSK529A or RAD001, or the combination of Thal SNS 032 and kinase inhibitors, for 5 days and cell viability was assessed by CellTiter-Glo (FIGS. 15F and 15G).

[6] = system: BET proteins (BRD2, BRD3, BRD4); assay: Western blot of BET proteins and BRD4 targets, OVCAR8 MZ1-R cells; conditions: for BET protein levels: Western blot
[7] = system: INSR and downstream MTOR, AKT and MAPK signaling; assay: Kinase signaling in BBD-R cells (MIB-MS, phospho-blot); conditions: for phosphorylation of P70S6K (T359): BBD-R cells (MZ1-R, ARV-R), 4 hours
Description: Reduced MIB-binding of kinases involved in cell cycle (WEE1, CHEK1, CDK2, CDK6 and PLK1), as well as kinases required for translation (EIF2AK1, EIF2AK2, and EIF2AK4) were also observed following GSK529A treatment. […] Enrichment maps of pathways repressed by INSR inhibition generated from MIB-MS profiles of OVCAR8 cells treated with GSK529A (1 μM) treatment for 48 hours. Statistical differences in protein log 2 LFQ z-scores comparing GSK529A to control treated MZ1-R cells was determined by paired T-Test Benjamini- Hochberg adjusted p values at FDR of <0.05 using Perseus Software. […] Enrichment maps were generated in Cytoscape using the Enrichment Map app v2.2.1. (data not shown).

OVCAR5 JQ1-R cells = assay: Growth curves, OVCAR5 JQ1-R cells
KURAMOCHI cells = assay: Combination cell viability, KURAMOCHI cells, CellTiter-Glo; conditions: 100 nM, 5 days
Text: The proposed model of the protection of BRD4 from PROTAC-degradation by MTOR signaling in ovarian cancer cells is shown in FIG. 7J. PROTAC-mediated degradation of BRD4 induces RTK signaling resulting in increased MTOR signaling which prevents the degradation of BRD4 in cells resistant to BET PROTACs.

DLD-1 cells [8] = assay: Spheroid assay, DLD-1 cells; conditions: 2 μM RAD001, 1 nM dBET6
Description: Data were analyzed as % cell viability of DMSO control, presented as means of 3 independent assays.

OVCAR8 MZ1-R cells [9] = assay: Apoptosis by Western blot, OVCAR8 MZ1-R cells
[10] = system: OVCAR8 parental, MZ1-R or ARV-R; assay: 14-day colony formation assay, crystal violet staining; conditions: ARV-R or MZ1-R vs parental OVCAR8, 14-day
Description: Parental, JQ1-R or MZ1-R OVCAR8 cells were treated with escalating doses of MK2206 for 5 days and cell viability assessed by CellTiter-Glo. MZ1-R or JQ1-R inhibitor treated cell viabilities normalized to DMSO treated JQ1-R or MZ1-R cells, respectfully (FIG. 11J). […] Parental, JQ1-R or MZ1-R OVCAR8 cells were treated with escalating doses of LP-935509 for 5 days and cell viability assessed by CellTiter-Glo. MZ1-R or JQ1-R inhibitor treated cell viabilities normalized to DMSO treated JQ1-R or MZ1-R cells, respectfully (FIG. 11K). […] Long-term 14-day colony formation assay of OVCAR8 parental, MZ1-R or ARV-R were treated with escalating doses of GSK529A or DMSO. Colony formation was assessed by crystal violet staining (FIG. 11L).

BET proteins, FOSL1, MYC = assay: Western blot of BET proteins and BRD4 targets, JQ1-R cells
[11] = system: BET proteins (BRD2, BRD3, BRD4); assay: Western blot of BET protein levels, OVCAR8 parental cells
CDK9 [12] = biological target: T1, CDK9; assay: Western blot of CDK9 protein levels, OVCAR8 cells; conditions: escalating doses
Description: as §1

DLD-1 cells [13] = assay: Cell-Titer Glo cell viability and drug synergy, DLD-1 cells
Description: Blockade of MTORC1 signaling sensitizes cancer cells resistant to BET-PROTACs. […] Data were analyzed as % cell viability of DMSO control, presented as means of 3 independent assays.

T1 sequence (P50750 whole entry): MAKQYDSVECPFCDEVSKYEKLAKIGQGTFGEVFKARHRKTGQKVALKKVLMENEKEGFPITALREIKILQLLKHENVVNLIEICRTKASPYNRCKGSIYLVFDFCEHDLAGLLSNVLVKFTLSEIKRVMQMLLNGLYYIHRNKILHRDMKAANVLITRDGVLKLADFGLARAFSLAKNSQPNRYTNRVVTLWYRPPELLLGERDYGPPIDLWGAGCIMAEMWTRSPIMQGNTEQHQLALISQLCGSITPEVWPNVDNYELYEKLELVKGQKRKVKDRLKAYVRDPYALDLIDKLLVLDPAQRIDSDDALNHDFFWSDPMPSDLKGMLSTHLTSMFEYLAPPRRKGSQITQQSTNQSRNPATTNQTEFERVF
T1 sequence (O60563 whole entry partner): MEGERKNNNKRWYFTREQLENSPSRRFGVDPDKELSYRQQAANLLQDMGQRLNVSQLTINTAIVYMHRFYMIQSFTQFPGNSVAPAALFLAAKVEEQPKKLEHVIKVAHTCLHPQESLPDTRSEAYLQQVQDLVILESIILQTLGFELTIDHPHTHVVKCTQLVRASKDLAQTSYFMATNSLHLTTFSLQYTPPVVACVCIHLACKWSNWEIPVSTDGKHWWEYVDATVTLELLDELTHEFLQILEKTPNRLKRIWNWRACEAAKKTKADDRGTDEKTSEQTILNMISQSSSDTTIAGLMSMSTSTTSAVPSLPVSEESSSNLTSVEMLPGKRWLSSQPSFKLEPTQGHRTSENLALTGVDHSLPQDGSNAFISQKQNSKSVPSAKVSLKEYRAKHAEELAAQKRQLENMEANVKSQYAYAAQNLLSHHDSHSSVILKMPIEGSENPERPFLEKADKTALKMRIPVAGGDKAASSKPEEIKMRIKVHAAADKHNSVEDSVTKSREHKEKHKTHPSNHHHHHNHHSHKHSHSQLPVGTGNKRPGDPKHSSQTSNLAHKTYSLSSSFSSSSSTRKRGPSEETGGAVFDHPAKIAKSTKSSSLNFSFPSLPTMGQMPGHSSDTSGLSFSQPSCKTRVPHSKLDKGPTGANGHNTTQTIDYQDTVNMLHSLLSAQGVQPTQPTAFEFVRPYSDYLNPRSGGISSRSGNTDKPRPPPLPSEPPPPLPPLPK

SMILES | cell viability / growth of MZ1-R cells compared with parental cells [1] | BRD2, BRD3 or BRD4 RNA levels (BRD2, BRD3 or BRD4 RNA) | sensitivity of MZ1-R cells relative to JQ1-R cells or parental cells (OVCAR8 MZ1-R cells [3]) | cell viability of ARV-R cells compared with parental cells (OVCAR8 ARV-R cells) | sensitivity of Thal-R cells relative to parental cells (OVCAR8 Thal-R cells) | BET protein levels [4] | CDK9 protein levels (CDK9 [5]) | BET protein levels [6] | phosphorylation of P70S6K (T359) ([7]; 1 μM) | growth inhibition (OVCAR5 JQ1-R cells) | cell viability / growth inhibition (KURAMOCHI cells) | spheroid growth in 3D assays (DLD-1 cells [8]) | apoptosis (OVCAR8 MZ1-R cells [9]) | also measured
CO[C@H]1C[C@@H]2CC[C@@H](C)[C@@](O)(O2)C(=O)C(=O)N2CCCC[C@H]2C(=O)O[C@H]([C@H](C)C[C@@H]2CC[C@@H](OCCO)[C@H](OC)C2)CC(=O)[C@H](C)/C=C(\C)[C@@H](O)[C@@H](OC)C(=O)[C@H](C)C[C@H](C)/C=C/C=C/C=C/1C [RAD001] | significantly blocked cell growth to a greater extent than parental cells | unaffected | more sensitive | reduced cell viability more than in parental cells | more sensitive | reduced BRD2 and BRD4 proteins | downregulation of CDK9 | reduced BRD2 and BRD4 levels | reduced MTOR-mediated phosphorylation of P70S6K (T359) | minimal growth inhibition | less effective | ineffective | – | BET protein levels [2]: reduced BRD2 and BRD4 levels; phosphorylated RNA pol II (S2) ([7]; OVCAR8 MZ1-R cells, 48 hour RAD001 treatment, with or without bortezomib): inhibition of phosphorylated RNA pol II (S2)
CCc1cc(Nc2nccc(-c3c(-c4ccc(OC)c(C(=O)Nc5c(F)cccc5F)c4)nc4ccccn34)n2)c(OC)cc1N1CCC(N2CCN(S(C)(=O)=O)CC2)CC1 [GSK1904529A] | significantly blocked cell growth to a greater extent than parental cells | unaffected | more sensitive | reduced cell viability more than in parental cells | more sensitive | reduced BRD2 and BRD4 proteins | downregulation of CDK9 | significantly reduced | reduced MTOR-mediated phosphorylation of P70S6K (T359) | minimal growth inhibition | – | – | induction of apoptosis | MYC protein levels ([6]; escalating doses, 48 hours): dose dependent reduction in MYC protein levels; colony formation [10]: inhibited colony formation to a greater extent than parental cells; BET protein levels (BET proteins, FOSL1, MYC): did not reduce BET protein levels; BET protein levels [11]: did not reduce BET protein levels; kinase MIB-binding ([7]; OVCAR8 MZ1-R cells, 1 μM, 48 hours, MIB-MS): reduced MIB-binding of drug targets INSR and IGF1R; kinase activity by phospho-blot ([7]; OVCAR8 MZ1-R cells, escalating doses, 48 hours): Inhibition of INSR/IGF1R, MTOR, P70S6K, BRAF and ERK activity
CC(C)(C)c1cnc(CSc2cnc(NC(=O)C3CCN(CC(=O)NCCOCCOCCOCCNc4cccc5c4C(=O)N(C4CCC(=O)NC4=O)C5=O)CC3)s2)o1 (stereo not drawn) [Thal SNS 032] | – | – | – | – | – | – | failed to degrade CDK9 | – | – | – | – | – | – | CDK9 protein levels (CDK9 [12]): reduction of CDK9 protein levels
Cc1sc2c(c1C)C(c1ccc(Cl)cc1)=N[C@@H](CC(=O)NCCCCCCCCNC(=O)COc1cccc3c1C(=O)N(C1CCC(=O)NC1=O)C3=O)c1nnc(C)n1-2 (stereo partly drawn) [dBET6] | – | – | – | cross resistance | – | – | – | – | – | – | less effective | ineffective | promoted apoptosis | GI50 (DLD-1 cells [13]): > 1000 nM; cell viability of MZ1-R cells compared with parental cells (OVCAR8 MZ1-R cells [3]; OVCAR8 MZ1-R): inhibited cell viability
